Data as given in patent publication US10993939B2, “Compositions for treating or preventing vasomotor symptoms” (Mitsubishi Tanabe Pharma Corporation, priority 2016, dated 2021).

What was measured:
[1] = system: female subjects experiencing Vasomotor Symptoms (VMS); experiment: Phase Ib study: core body temperature assessment; format: in vivo, human; conditions: 50 mg; within 24 hours post-dose on Visit Day 1, 7, 10 or 14, FIG. 4
From the text: Study Design: This was a Phase Ib, randomized, double blind, placebo controlled study. The study design is illustrated in FIG. 2. Following the initial Screening visit, eligible subjects was given an actigraphy event monitor (watch) to record episodes of flashing as Vasomotor symptoms (VMS) events during a period of 2 weeks during Screening, in order to confirm VMS eligibility criteria (>7 VMS/day on average during 2 weeks). Subjects may be required to return to the site during the Screening period to read or exchange the actigraphy event monitor. Subjects deemed eligible following review of VMS data were invited to attend the Clinical research unit (CRU) for one residential period of 16 days duration, including 14 days of Investigational Medicinal Product (IMP) administration. Subjects were admitted to the CRU 1 day prior to dosing (Day −1). No medication was administered on Day −1. On Day 1, subjects who meet the study eligibility criteria were randomized to receive one dose level of either Compound A (6 subjects) or a matching placebo (2 subjects) in a double-blind manner. Randomized treatment was administered once nightly, starting on Day 1, for a total duration of 14 days. […]

naive SD rats = experiment: Evaluation of TRPM8 antagonist on core body (rectal) temperature in rats; format: in vivo
Description: Methods: Compound A (0.3 and 3 mg/kg) or vehicle was orally administered to naive SD rats (n=6). Rectal temperature was measured before, 1, 2, 3 and 6 hours after administration. AUC for 0 to 6 hours was calculated and statistically analyzed.

[2] = system: female subjects experiencing Vasomotor Symptoms (VMS); experiment: Phase Ib study: frequency of vasomotor symptoms (VMS); format: in vivo, human; parameters: key to Mean observed value in VMS frequency (moderate and severe VMS): moderate + severe VMS events per day
From the text: Study Design: This was a Phase Ib, randomized, double blind, placebo controlled study. The study design is illustrated in FIG. 2. Following the initial Screening visit, eligible subjects was given an actigraphy event monitor (watch) to record episodes of flashing as Vasomotor symptoms (VMS) events during a period of 2 weeks during Screening, in order to confirm VMS eligibility criteria (>7 VMS/day on average during 2 weeks). Subjects may be required to return to the site during the Screening period to read or exchange the actigraphy event monitor. Subjects deemed eligible following review of VMS data were invited to attend the Clinical research unit (CRU) for one residential period of 16 days duration, including 14 days of Investigational Medicinal Product (IMP) administration. Subjects were admitted to the CRU 1 day prior to dosing (Day −1). No medication was administered on Day −1. On Day 1, subjects who meet the study eligibility criteria were randomized to receive one dose level of either Compound A (6 subjects) or a matching placebo (2 subjects) in a double-blind manner. Randomized treatment was administered once nightly, starting on Day 1, for a total duration of 14 days.
Fifty (50) mg of Compound A was administered to the female subjects experiencing Vasomotor Symptoms (VMS), and as the above-mentioned assessments, a Frequency of VMS and a Core body temperature assessment were examined.
Here a moderate VMS and a severe VMS were counted as a VMS frequency.

O=C(O)c1ccc(S(=O)(=O)N(Cc2ccc(OC(F)(F)F)cc2)c2ncc3ccccc3c2C2CC2)cc1 [Compound A, 4-({(4-cyclopropylisoquinolin-3-yl)[4-(trifluoromethoxy)benzyl]amino}sulfonyl)benzoic acid]
Change from baseline in core body temperature [1]: reduced the core body temperature significantly | Maximum decrease in rectal temperature (amplitude) (naive SD rats; 3 mg/kg orally, at 2 hours after administration, SD rats): 0.82 °C | Rectal temperature compared to vehicle (AUC for 0 to 6 hours) (naive SD rats; 0.3 and 3 mg/kg orally, naive SD rats, P<0.01 vs vehicle, FIG. 1): significantly reduced rectal temperature | Effect on frequency of VMS versus placebo ([2]; 50 mg once nightly, 14 days, FIG. 3): reduced the frequency of VMS significantly | Onset of the reduction effect of VMS frequency ([2]; 50 mg once nightly, FIG. 3): the reduction effect of VMS frequency was shown at Day 2 or later | Mean observed value in VMS frequency (moderate and severe VMS) ([2]; Baseline (before dosing), 50 mg group): 11.2 | Mean observed value in VMS frequency (moderate and severe VMS) ([2]; Day 1, 50 mg once nightly): 11.7 | Mean observed value in VMS frequency (moderate and severe VMS) ([2]; Day 2, 50 mg once nightly): 6.0 | Mean observed value in VMS frequency (moderate and severe VMS) ([2]; Day 3, 50 mg once nightly): 4.7 | Mean observed value in VMS frequency (moderate and severe VMS) ([2]; Day 4, 50 mg once nightly): 4.7 | Mean observed value in VMS frequency (moderate and severe VMS) ([2]; Day 5, 50 mg once nightly): 2.7 | Mean observed value in VMS frequency (moderate and severe VMS) ([2]; Day 6, 50 mg once nightly): 2.8 | Mean observed value in VMS frequency (moderate and severe VMS) ([2]; Day 7, 50 mg once nightly): 3.0 | Mean observed value in VMS frequency (moderate and severe VMS) ([2]; Day 8, 50 mg once nightly): 3.3 | Mean observed value in VMS frequency (moderate and severe VMS) ([2]; Day 9, 50 mg once nightly): 1.3 | Mean observed value in VMS frequency (moderate and severe VMS) ([2]; Day 10, 50 mg once nightly): 3.2 | Mean observed value in VMS frequency (moderate and severe VMS) ([2]; Day 11, 50 mg once nightly): 2.8 | Mean observed value in VMS frequency (moderate and severe VMS) ([2]; Day 12, 50 mg once nightly): 2.7 | Mean observed value in VMS frequency (moderate and severe VMS) ([2]; Day 13, 50 mg once nightly): 2.3 | Mean observed value in VMS frequency (moderate and severe VMS) ([2]; Day 14, 50 mg once nightly): 2.3
